Laboratory results from patent publication US4640910A (Abbott Laboratories, priority 1985, dated 1987).
Converted amounts (≈) assume the structure as drawn. Like-named read-outs stand apart in the source and are kept apart here.

Legend:
[1] = Solubility of prodrug in aqueous buffers; type: physicochemical
Experimental: (§1) Samples of 2'-trimethylsilylerythromycin A and 2'-trimethylsilyl-6-O-methylerythromycin A were dissolved in 10-50 ml dimethyl sulfoxide or acetonitrile to give a solution containing 15-75 mg/ml. An aliquot containing 75 mg of prodrug was added to aqueous buffers ranging in pH from 2 to 12 to give a final volume equal to 500 ml. The buffered mixtures were stirred at 37° C. for at least 90 minutes. A standard dissolution test apparatus (Vanderkamp 600, Van-Kel Industries, Inc., 36 Meridian Road, Edisoin, N.J. 08820) was used to provide temperature and stirring rate control.
(§2) Aliquots were taken at 15, 30, 45, 60, 90, 120, 180, 240 and 360 minutes for analysis. Each sample was mixed with an internal standard, adjusted rapidly to pH 9 with 1M tricine buffer and extracted immediately with ethyl acetate. The organic extracts were evaporated and redissolved in a solution of 3% tetrahydrofuran in heptane. Samples of these solutions were injected using an autosampler (WISP 71)B, Waters Chromatography, Division of Millipore, 34 Maple Street, Milford, Mass. 01757). The prodrugs and drugs were separated by high performance liquid chromatography, detected at 225 nm using a spectrophotometer (Spectroflow 773 Absorbence Detector, Kratos Analytical Instruments), and were quantified with a digital integrator.

[2] = system: Staph. aureus ATCC 6538P; assay: Antimicrobial spectrum, agar dilution MIC; type: cell-based; details: Staphylococcus aureus, ATCC6538P, BHI agar, 35°-37° C., 20-24 hours
[3] = system: E. coli JUHL; assay: Antimicrobial spectrum, agar dilution MIC; type: cell-based; details: Escherichia coli, BHI agar, 35°-37° C., 20-24 hours
[4] = system: Ps. aeruginosa K799/WT; assay: Antimicrobial spectrum, agar dilution MIC; type: cell-based; details: Pseudomonas aeruginosa, BHI agar, 35°-37° C., 20-24 hours
[5] = system: Strep. pyogenes EES61; assay: Antimicrobial spectrum, agar dilution MIC; type: cell-based; details: Streptococcus pyogenes, BHI agar, 35°-37° C., 20-24 hours
[6] = system: Staph. aureus; assay: Extended mouse protection study; details: oral
[7] = system: Ps. aeruginosa BMH10; assay: Antimicrobial spectrum, agar dilution MIC; type: cell-based; details: Pseudomonas aeruginosa, BMH10
[8] = system: Micrococcus luteus 4698; assay: Antimicrobial spectrum, agar dilution MIC; type: cell-based; details: BHI agar, 35°-37° C., 20-24 hours
[9] = system: Klebsiella pneumoniae 8045; assay: Antimicrobial spectrum, agar dilution MIC; type: cell-based; details: BHI agar, 35°-37° C., 20-24 hours
[10] = system: Strep. bovis A5169; assay: Antimicrobial spectrum, agar dilution MIC; type: cell-based; details: Streptococcus equinus, BHI agar, 35°-37° C., 20-24 hours
[11] = system: Strep. pyogenes 930; assay: Antimicrobial spectrum, agar dilution MIC; type: cell-based; details: Streptococcus pyogenes, BHI agar, 35°-37° C., 20-24 hours
[12] = system: Lactobacillus casei ATCC 7469; assay: Antimicrobial spectrum, agar dilution MIC; type: cell-based; details: Lacticaseibacillus casei, ATCC7469; Lactobacillus casei ATCC 7469; BHI agar, 35°-37° C., 20-24 hours; read-out: MIC
[13] = system: Micrococcus luteus 9341; assay: Antimicrobial spectrum, agar dilution MIC; type: cell-based; details: Micrococcus luteus 9341; BHI agar, 35°-37° C., 20-24 hours; read-out: MIC
[14] = system: Strep. faecium ATCC 8043; assay: Antimicrobial spectrum, agar dilution MIC; type: cell-based; details: Enterococcus faecium, ATCC8043, BHI agar, 35°-37° C., 20-24 hours
[15] = system: Staph. aureus A 5177; assay: Antimicrobial spectrum, agar dilution MIC; type: cell-based; details: Staphylococcus aureus, A5177
[16] = system: Staph. epidermidis 3519; assay: Antimicrobial spectrum, agar dilution MIC; type: cell-based; details: Staphylococcus epidermidis, BHI agar, 35°-37° C., 20-24 hours
[17] = system: Providencia stuartii CMX 640; assay: Antimicrobial spectrum, agar dilution MIC; type: cell-based; details: Providencia stuartii, CMX640
[18] = system: Strep. agalactiae CMX 508; assay: Antimicrobial spectrum, agar dilution MIC; type: cell-based; details: Streptococcus agalactiae, CMX508, BHI agar, 35°-37° C., 20-24 hours
[19] = system: Ps. aeruginosa K799/61; assay: Antimicrobial spectrum, agar dilution MIC; type: cell-based; details: Pseudomonas aeruginosa, BHI agar, 35°-37° C., 20-24 hours
[20] = system: E. coli H560; assay: Antimicrobial spectrum, agar dilution MIC; type: cell-based; details: Escherichia coli, BHI agar, 35°-37° C., 20-24 hours
[21] = system: Strep. pneumoniae; assay: Extended mouse protection study; details: oral
[22] = system: Ps. cepacia 2961; assay: Antimicrobial spectrum, agar dilution MIC; type: cell-based; details: Burkholderia cepacia, 2961
[23] = system: Enterobact. aerogenes ATCC 13048; assay: Antimicrobial spectrum, agar dilution MIC; type: cell-based
[24] = system: E. coli SS; assay: Antimicrobial spectrum, agar dilution MIC; type: cell-based; details: Escherichia coli, BHI agar, 35°-37° C., 20-24 hours
[25] = system: Ps. aeruginosa A5007; assay: Antimicrobial spectrum, agar dilution MIC; type: cell-based; details: Pseudomonas aeruginosa, BHI agar, 35°-37° C., 20-24 hours
[26] = system: Staph. epidermidis 3519 RARI; assay: Antimicrobial spectrum, agar dilution MIC; type: cell-based; details: Staphylococcus epidermidis
[27] = system: Acinetobacter sp. CMX 669; assay: Antimicrobial spectrum, agar dilution MIC; type: cell-based; details: SP.CMX669, BHI agar, 35°-37° C., 20-24 hours
[28] = system: Strep. pyogenes; assay: Extended mouse protection study; details: oral
[29] = system: Staph. aureus CMX 686B; assay: Antimicrobial spectrum, agar dilution MIC; type: cell-based; details: Staphylococcus aureus, CMX686B, BHI agar, 35°-37° C., 20-24 hours
[30] = Stability and release of drug from prodrug in aqueous buffers pH 2 to 12 (dissolution apparatus, HPLC); type: physicochemical; details: for conversion to active drug: 37° C.
Experimental: as §1, §2

[31] = system: E. coli DC-2; assay: Antimicrobial spectrum, agar dilution MIC; type: cell-based; details: Escherichia coli, DC2, BHI agar, 35°-37° C., 20-24 hours
[32] = carboxymethylcellulose with milk (reduces gastric acid secretion)
[33] = phosphate buffer solution with milk (reduces gastric acid secretion)

Compound: CC[C@H]1OC(=O)[C@H](C)[C@@H](O[C@H]2C[C@@](C)(OC)[C@@H](O)[C@H](C)O2)[C@H](C)[C@@H](O[C@@H]2O[C@H](C)C[C@H](N(C)C)[C@H]2O[Si](C)(C)C)[C@](C)(OC)C[C@@H](C)C(=O)[C@H](C)[C@@H](O)[C@]1(C)O [Example 3, 2'-O-trimethylsilyl-6-O-methyl-Erythromycin A]
- solubility ([1]; aqueous buffer, pH 2, completely soluble, read-out: solubility): ≥ 150 µg/mL
- solubility ([1]; neutral or alkaline pH): little or no solubility
- MIC [2]: 0.78 µg/mL (≈ 0.951 µM)
- MIC [3]: 100 µg/mL (≈ 122 µM)
- MIC [4]: 100 µg/mL (≈ 122 µM)
- MIC [5]: 0.05 µg/mL (≈ 0.061 µM)
- ED50 ([6]; carboxymethylcellulose): 34.9 mg/kg/day
- ED50 ([6]; phosphate buffer solution): 157.9 mg/kg/day
- MIC [7]: 100 µg/mL (≈ 122 µM)
- MIC [8]: 0.39 µg/mL (≈ 0.476 µM)
- MIC [9]: 100 µg/mL (≈ 122 µM)
- MIC [10]: 0.1 µg/mL (≈ 0.122 µM)
- MIC [11]: 100 µg/mL (≈ 122 µM)
- MIC [12]: 0.1 µg/mL (≈ 0.122 µM)
- MIC [13]: 0.1 µg/mL (≈ 0.122 µM)
- MIC [14]: 0.2 µg/mL (≈ 0.244 µM)
- MIC [15]: 3.1 µg/mL (≈ 3.78 µM)
- MIC [16]: 0.78 µg/mL (≈ 0.951 µM)
- MIC [17]: 100 µg/mL (≈ 122 µM)
- MIC [18]: 0.1 µg/mL (≈ 0.122 µM)
- MIC [19]: 25 µg/mL (≈ 30.5 µM)
- MIC [20]: 100 µg/mL (≈ 122 µM)
- ED50 ([21]; carboxymethylcellulose): 7.9 mg/kg/day
- ED50 [21, 32]: 7.3 mg/kg/day
- ED50 ([21]; phosphate buffer solution): 9.3 mg/kg/day
- ED50 [21, 33]: 10.9 mg/kg/day
- MIC [22]: 100 µg/mL (≈ 122 µM)
- MIC [23]: 100 µg/mL (≈ 122 µM)
- MIC [24]: 0.39 µg/mL (≈ 0.476 µM)
- MIC [25]: 100 µg/mL (≈ 122 µM)
- MIC [26]: 0.39 µg/mL (≈ 0.476 µM)
- MIC [27]: 50 µg/mL (≈ 61 µM)
- ED50 [28, 32]: 7.8 mg/kg/day
- ED50 ([28]; phosphate buffer solution): 12.7 mg/kg/day
- ED50 [28, 33]: 14.1 mg/kg/day
- MIC [29]: 0.78 µg/mL (≈ 0.951 µM)
- conversion to active drug ([30]; acid pH): converted to the active drug 6-O-methylerythromycin A
- release rates ([30]; pH 3 and 4, 37° C.): both dissolution-rate limited release and also release from the initially dissolved material
- release rates ([30]; pH 5, 6 and 7, 37° C.): dissolution-rate limited release
- decomposition ([30]; pH 7, owing to solubility properties): severely restrict its decomposition
- conversion to active drug ([30]; pH 8 or above): Very little or no conversion
- MIC [31]: 100 µg/mL (≈ 122 µM)
